Results published in ChEMBL document CHEMBL1201862, “PubChem BioAssay data set” (2004).
Active and inactive are the calls of the source. For most assays here, no stated cut-off is given here; in the data, actives have a measured EC50 and inactives only a lower limit.

Assays:
[1] = molecular target: T1, Replicative DNA helicase DnaB (Mycobacterium tuberculosis, UniProt P9WMR3); assay: DnaB intein splicing inhibitors, dose response, biochemical, cell-free fluorescence (AID 449749); assay type: functional
T1 sequence (P9WMR3 whole entry): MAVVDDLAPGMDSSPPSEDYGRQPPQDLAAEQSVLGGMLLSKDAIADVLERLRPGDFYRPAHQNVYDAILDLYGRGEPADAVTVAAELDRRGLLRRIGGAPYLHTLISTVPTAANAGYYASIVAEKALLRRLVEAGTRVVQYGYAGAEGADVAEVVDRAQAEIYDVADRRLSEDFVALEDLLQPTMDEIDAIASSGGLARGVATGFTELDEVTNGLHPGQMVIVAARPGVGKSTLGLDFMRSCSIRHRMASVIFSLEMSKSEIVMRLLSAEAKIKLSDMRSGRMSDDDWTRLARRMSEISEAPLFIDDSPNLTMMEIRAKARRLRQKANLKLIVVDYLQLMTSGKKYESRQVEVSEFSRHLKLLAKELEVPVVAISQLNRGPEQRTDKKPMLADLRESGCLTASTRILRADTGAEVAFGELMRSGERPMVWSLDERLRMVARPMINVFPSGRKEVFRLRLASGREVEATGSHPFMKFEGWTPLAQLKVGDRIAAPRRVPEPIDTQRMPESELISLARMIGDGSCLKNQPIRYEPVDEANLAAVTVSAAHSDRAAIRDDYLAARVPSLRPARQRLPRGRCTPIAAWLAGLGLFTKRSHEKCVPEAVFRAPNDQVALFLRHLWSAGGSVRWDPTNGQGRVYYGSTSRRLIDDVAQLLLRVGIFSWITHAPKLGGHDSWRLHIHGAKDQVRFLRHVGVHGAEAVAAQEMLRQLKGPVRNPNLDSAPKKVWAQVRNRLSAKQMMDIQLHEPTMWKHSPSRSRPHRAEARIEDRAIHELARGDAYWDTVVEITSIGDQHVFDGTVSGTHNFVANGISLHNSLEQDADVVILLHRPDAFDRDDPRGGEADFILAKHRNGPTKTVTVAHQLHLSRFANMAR

[2] = molecular target: T2, Protein RecA (Mycobacterium tuberculosis, UniProt P9WHJ3); assay: Fluorescence Cell-Free Homogeneous Dose Retest to Identify Inhibitors of RecA-Intein Splicing Activity. [Related pubchem assays (depositor defined):AID2097, AID2223, AID489010, AID492950]; assay type: functional
T2 sequence (P9WHJ3 whole entry): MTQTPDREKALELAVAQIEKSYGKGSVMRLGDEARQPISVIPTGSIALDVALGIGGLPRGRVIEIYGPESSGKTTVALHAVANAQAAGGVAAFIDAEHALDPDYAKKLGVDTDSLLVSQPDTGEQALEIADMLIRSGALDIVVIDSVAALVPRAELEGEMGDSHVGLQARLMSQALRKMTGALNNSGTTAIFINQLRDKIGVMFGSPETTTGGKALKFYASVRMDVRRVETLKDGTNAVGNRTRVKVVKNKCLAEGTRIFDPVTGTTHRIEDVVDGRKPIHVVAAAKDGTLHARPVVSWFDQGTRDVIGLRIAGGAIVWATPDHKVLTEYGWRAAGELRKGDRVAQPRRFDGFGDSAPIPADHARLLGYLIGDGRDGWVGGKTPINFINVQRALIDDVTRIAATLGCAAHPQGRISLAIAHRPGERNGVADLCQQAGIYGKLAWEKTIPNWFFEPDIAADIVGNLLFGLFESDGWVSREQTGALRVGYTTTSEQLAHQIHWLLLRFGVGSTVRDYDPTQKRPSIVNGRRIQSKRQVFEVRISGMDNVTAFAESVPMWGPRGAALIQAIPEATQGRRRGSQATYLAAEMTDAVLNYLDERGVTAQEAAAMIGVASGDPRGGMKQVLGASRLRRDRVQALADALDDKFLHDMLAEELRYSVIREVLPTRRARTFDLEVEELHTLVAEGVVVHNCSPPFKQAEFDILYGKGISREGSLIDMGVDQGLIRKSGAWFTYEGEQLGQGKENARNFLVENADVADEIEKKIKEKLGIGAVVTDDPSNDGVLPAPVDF

[3] = cells; assay type: functional
[4] = system: Streptococcus sp. 'group A'; assay: Streptococcus pyogenes SK(-)GAS viability under kanamycin – luminescence, BacTiterGlo, confirmation, counter-screen for streptokinase expression inhibitor project, dose response (AID 1900); assay type: functional, organism-based
[5] = molecular target: T3, Streptokinase A (Streptococcus pyogenes serotype M1, UniProt P10520); assay: viability-normalized secreted streptokinase activity reduction – plasminogen activation absorbance, OD405, dose response (AID 1914); assay type: functional, Streptococcus pyogenes M1 GAS;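 further: secreted streptokinase activity via plasminogen activation per viability signal from cell pellet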
T3 sequence (P10520 whole entry): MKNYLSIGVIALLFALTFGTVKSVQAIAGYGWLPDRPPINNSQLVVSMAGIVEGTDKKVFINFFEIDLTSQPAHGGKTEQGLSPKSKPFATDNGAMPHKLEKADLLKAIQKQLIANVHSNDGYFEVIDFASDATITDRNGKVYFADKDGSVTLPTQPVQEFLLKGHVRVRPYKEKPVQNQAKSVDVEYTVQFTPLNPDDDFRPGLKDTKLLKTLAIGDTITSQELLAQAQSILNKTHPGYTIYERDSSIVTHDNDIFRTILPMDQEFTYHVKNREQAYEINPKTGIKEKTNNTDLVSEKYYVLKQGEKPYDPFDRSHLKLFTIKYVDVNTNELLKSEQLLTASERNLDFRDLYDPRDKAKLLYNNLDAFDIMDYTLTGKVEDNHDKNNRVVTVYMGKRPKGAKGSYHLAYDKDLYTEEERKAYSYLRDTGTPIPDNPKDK

[6] = system: Streptococcus; assay: GAS UMAA2166 growth inhibition – luminescence, BacTiterGlo, counter-screen for streptokinase expression inhibitor project, dose response (AID 1915); assay type: functional, organism-based;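 further: potency for reduction of bacterial viability or growth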
[7] = molecular target: Cytochrome P450 2D6 (Homo sapiens, UniProt P10635);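 further: CYP2D6 member of a cytochrome P450 panel assay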
[8] = molecular target: Cytochrome P450 3A4 (Homo sapiens, UniProt P08684);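 further: CYP3A4 tested as one member of a cytochrome P450 panel screen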
[9] = Luminescence Cell-Based Dose Confirmation HTS to Identify Activators of 5'UTR Stem-Loop Driven Alpha-Synuclein mRNA Translation in H4 Neuroglioblastoma Cells. [Related pubchem assays: 1829 (Project Summary), 1814 (Primary HTS)]; assay type: functional
[10] = Luminescence Cell-Based Dose Response HTS to Identify Activators of Luciferase Translation or Activity in H4 […] Cells. [Related pubchem assays: 1829 (Project Summary), 1814 (Primary HTS)]; assay type: functional
[11] = system: H4; assay: Luminescence Cell-Based Dose Response HTS to Identify Activators of 5'UTR Stem-Loop Driven Prion Protein mRNA Translation in H4 Neuroglioblastoma Cells. [Related pubchem assays: 1829 (Project Summary), 1814 (Primary HTS)]; assay type: functional; conditions: Homo sapiens
[12] = molecular target: T4, Heat shock factor protein 1 (Mus musculus, UniProt P38532); assay: decrease of HSF1-responsive luciferase luminescence – cell-based, NIH3T3, dose retest, confirmation (AID 2382); assay type: functional;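 further: NIH3T3 fibroblasts with HSF1-driven luciferase reporter stressed by proteasome inhibitor MG132; luminescence from HSF1-driven luciferase expression after 8 hours of MG132 stress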
T4 sequence (P38532 whole entry): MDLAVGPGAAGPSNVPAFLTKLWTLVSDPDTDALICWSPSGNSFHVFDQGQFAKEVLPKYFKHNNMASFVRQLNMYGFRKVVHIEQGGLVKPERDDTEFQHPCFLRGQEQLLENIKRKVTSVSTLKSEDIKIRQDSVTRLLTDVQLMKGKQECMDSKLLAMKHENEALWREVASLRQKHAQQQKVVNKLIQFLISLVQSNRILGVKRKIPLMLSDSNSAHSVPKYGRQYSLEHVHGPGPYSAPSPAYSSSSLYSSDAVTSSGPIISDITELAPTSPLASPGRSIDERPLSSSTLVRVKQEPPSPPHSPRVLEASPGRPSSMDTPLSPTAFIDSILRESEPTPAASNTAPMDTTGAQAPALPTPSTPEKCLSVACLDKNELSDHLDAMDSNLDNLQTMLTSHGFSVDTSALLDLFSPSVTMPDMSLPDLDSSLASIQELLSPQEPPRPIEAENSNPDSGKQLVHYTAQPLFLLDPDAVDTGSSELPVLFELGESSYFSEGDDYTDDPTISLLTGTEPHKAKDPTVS

Chain of Cytochrome P450 2D6 (P10635 whole entry): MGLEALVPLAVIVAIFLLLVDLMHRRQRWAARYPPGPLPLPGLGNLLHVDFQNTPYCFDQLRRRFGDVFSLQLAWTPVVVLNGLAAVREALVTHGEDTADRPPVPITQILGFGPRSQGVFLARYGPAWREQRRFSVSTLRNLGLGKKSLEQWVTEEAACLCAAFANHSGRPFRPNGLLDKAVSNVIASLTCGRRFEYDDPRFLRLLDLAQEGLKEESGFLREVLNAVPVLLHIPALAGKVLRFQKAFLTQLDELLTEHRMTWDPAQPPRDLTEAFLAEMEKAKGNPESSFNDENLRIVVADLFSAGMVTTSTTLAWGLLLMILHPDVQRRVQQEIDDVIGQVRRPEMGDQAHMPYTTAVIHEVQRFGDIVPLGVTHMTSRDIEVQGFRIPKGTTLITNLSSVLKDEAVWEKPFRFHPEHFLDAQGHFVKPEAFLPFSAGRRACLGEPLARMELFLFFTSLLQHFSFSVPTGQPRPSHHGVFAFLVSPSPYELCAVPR
Chain of Cytochrome P450 3A4 (P08684 whole entry): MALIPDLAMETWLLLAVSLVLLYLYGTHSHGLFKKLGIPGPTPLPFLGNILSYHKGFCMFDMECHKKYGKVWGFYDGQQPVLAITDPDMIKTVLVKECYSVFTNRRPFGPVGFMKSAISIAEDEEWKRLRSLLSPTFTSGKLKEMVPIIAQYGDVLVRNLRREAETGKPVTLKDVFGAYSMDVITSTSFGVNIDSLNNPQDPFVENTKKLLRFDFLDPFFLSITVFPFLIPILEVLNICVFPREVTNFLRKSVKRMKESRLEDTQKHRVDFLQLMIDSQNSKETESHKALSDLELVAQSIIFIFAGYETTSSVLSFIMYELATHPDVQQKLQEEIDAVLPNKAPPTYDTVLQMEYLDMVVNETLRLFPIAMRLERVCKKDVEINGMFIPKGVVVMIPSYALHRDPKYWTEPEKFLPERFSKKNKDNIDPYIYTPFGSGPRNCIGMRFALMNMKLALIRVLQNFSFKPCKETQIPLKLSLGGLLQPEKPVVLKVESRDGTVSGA

Cc1nc2ccccc2c2c1C(=O)N(C(C)C)C2=O
AC50 [1]: 192 µM (active)
EC50 [2]: 0.851 µM (active)

Cc1ccnc(NC(=O)CCc2c[nH]c3ccccc23)c1
IC50 [3]: 21.6 µM (active)

O=C(c1ccccc1)c1c[nH]c(C(=O)C(Cl)(Cl)Cl)c1
AC50 [1]: 21.7 µM (active)
EC50 [2]: 8.23 µM (active)

Cc1nn(Cc2ccccc2)c2c1C(c1ccco1)C(C#N)=C(N)O2 (stereo unspecified)
AC50 [1]: > 380 µM (inactive)
EC50 [2]: 3.15 µM (active)

Cc1nn(C(=O)c2cccnc2)c(C)c1Sc1ccc(Br)cc1
EC50 [4]: 11.1 µM (active)
EC50 [5]: > 150 µM (not active)
EC50 [6]: > 150 µM (not active)
AC50 [1]: 4.61 µM (active)
EC50 [2]: 18.7 µM (active)
AC50 [7]: 25.1 µM (inconclusive)
AC50 [8]: 15.8 µM (inconclusive)

O=C(c1ccc(F)cc1)c1ccc(-c2ccc(F)cc2)nc1
EC50 [9]: 4.41 µM (active)
EC50 [10]: 11.9 µM (active)
EC50 [11]: 11.6 µM (active)

O=C1NC2=C(CCc3ccccc32)C(c2ccccc2)N1 (stereo unspecified)
AC50 [1]: 2.19 µM (active)
EC50 [2]: 1.67 µM (active)

O=C(Nc1cc(Cl)ccc1-n1cncn1)c1ccc([N+](=O)[O-])o1
EC50 [9]: > 120 µM (not active)
EC50 [10]: > 120 µM (not active)
EC50 [4]: 11.7 µM (active)
EC50 [11]: > 120 µM (not active)
EC50 [5]: 56.7 µM (inconclusive)
EC50 [6]: > 150 µM (not active)

CCOc1ccc(-c2nc3ccccc3c(=O)o2)cc1
IC50 [3]: 7.01 µM (active)

CC(C)(C)C(=O)Nc1ccc(N=Nc2ccccc2)cc1
EC50 [12]: < 0.16 µM (active)
AC50 [1]: 4.35 µM (active)
EC50 [2]: 2.85 µM (active)

O=C(NNC(=O)c1ccccc1F)c1ccc(-c2ccc(Cl)cc2)o1
IC50 [3]: 8.21 µM (active)

O=C(NC(NC(=S)Nc1ccc(Cl)cc1Cl)C(Cl)(Cl)Cl)c1cccc([N+](=O)[O-])c1 (stereo unspecified)
AC50 [1]: 2.33 µM (active)
EC50 [2]: 3.3 µM (active)

O=C(c1ccccc1)[C@H]1[C@H](c2ccccc2)[C@@]2(N=C(c3ccccc3)OC2=O)C2c3ccccc3C=NN21 (stereo partly specified)
EC50 [9]: 6.71 µM (active)
EC50 [10]: 19 µM (active)
EC50 [11]: > 120 µM (not active)

O=C(Nc1c(F)cc(F)cc1Br)c1cc(-c2ccccc2)on1
IC50 [3]: 4 µM (active)

CC(C)N(Cc1nccn1C)C(=O)CCc1nnc(CCCc2ccccc2)o1
EC50 [9]: 12.7 µM (active)
EC50 [10]: 15.5 µM (active)
EC50 [11]: 31.2 µM (active)

CCc1ccc(N2CCN(CCNC(=O)Nc3ccc(OC)cc3)CC2)cc1
IC50 [3]: 38.2 µM (active)

Cc1ccc(NC(=O)c2ocnc2C)cc1Cl
EC50 [9]: 0.145 µM (active)
EC50 [10]: 1.04 µM (active)
EC50 [11]: 6.44 µM (active)

O=[N+]([O-])c1ccc(/C=C2\CCC(C3=CCCC3)=C2N2CCOCC2)cc1
EC50 [9]: > 120 µM (not active)
EC50 [10]: > 120 µM (not active)
EC50 [11]: > 120 µM (not active)

CNC(=O)COC(=O)c1ccc(-c2nc3ccccc3s2)s1
EC50 [10]: 0.764 µM (active)
EC50 [11]: 56.3 µM (active)
IC50 [3]: 5.82 µM (active)

CC(C)NC(=O)c1[nH]nc2c1CCc1ccccc1-2
EC50 [9]: 5.26 µM (active)
EC50 [10]: 56 µM (active)
EC50 [11]: 8.82 µM (active)

CSc1ccc(/C=C(/NC(=O)c2ccccc2)C(=O)N2CCN(C)CC2)cc1
EC50 [9]: > 120 µM (not active)
EC50 [10]: > 120 µM (not active)
EC50 [11]: > 60 µM (not active)

S=C(Nc1ccc(Br)cc1Cl)N1CCC2(CC1)OCCO2
EC50 [9]: > 120 µM (not active)
EC50 [10]: 23.5 µM (active)
EC50 [11]: 16 µM (active)

Cc1nn(-c2ccccc2)c2c1C1(C(=O)N3c4c(cccc41)C(C)CC3(C)C)C(C#N)=C(N)O2 (stereo unspecified)
AC50 [1]: 4.61 µM (active)
EC50 [2]: 3.2 µM (active)

CCCn1c(N)c(Sc2ccc(C)cc2)c(=O)n(CCC)c1=O
EC50 [9]: > 120 µM (not active)
EC50 [10]: > 120 µM (not active)
EC50 [11]: > 120 µM (not active)

O=C(CSc1nnc(-c2ccccc2Cl)o1)Oc1ccc(Br)cc1
AC50 [1]: 1.42 µM (active)
EC50 [2]: 3 µM (active)

C(=N\Nc1nc(-c2ccccc2)cs1)/c1cccnc1
EC50 [9]: 0.198 µM (active)
EC50 [10]: 33.3 µM (active)
EC50 [11]: 44.1 µM (active)

COc1cc(/C=N/n2c(C)nnc2S)ccc1OCc1ccc(F)cc1
EC50 [9]: > 120 µM (not active)
EC50 [10]: > 120 µM (not active)
EC50 [11]: 32 µM (active)
